In patent US20120178625A1, “METHOD FOR REDUCING PISTILLATE FLOWER ABORTION IN PLANTS” (BASF SE, priority 2009, published 2012):

System: walnut (Juglans regia cv. Serr)
Experiment: Control of PFA (pistillate flower abortion) field trial in a walnut orchard, Graneros, Chile (2008/2009)
Format: in vivo
Conditions: water 1500 l/ha
Excerpt: In the terms of the present invention, “reducing pistillate flower abortion in plants” refers to a reduction in the level of PFA. This reduction can be measured by determining a) the fruit set (%), b) the number of growing fruits (%) and/or c) the remaining fruits at harvest (%) (fruit yield). The higher the percentage of fruit set, growing fruits and/or remaining fruits at harvest, the lower the respective pistillate flower abortion. The trial was run in a walnut orchard (Juglans regia cv. Serr) located in Graneros, Chile in the year 2008. Trial design was completely randomized with 3 replicates per treatment. Each replicate had identified branches completing 100 female flowers. Remaining fruit were counted after fruit set and at harvest time. […] [table] […] As a consequence PFA was quite high, influencing adversely yields in orchard where no ethylene control was done.

[1] = Treatment No. 2: 0.5 l/ha, 2 applications (10% and 30% of pistillates flowering)
[2] = Treatment No. 5: 0.7 l/ha + 0.015% Break-Thru, 3 applications (10%, 30% and 50% of pistillates flowering)

COC(=O)N(OC)c1ccccc1COc1ccn(-c2ccc(Cl)cc2)n1 [Pyraclostrobin, pyraclostrobin]
Fruit set (%) (Oct. 23, 2008) [1]: 54.0% | Increase (%) compared to UTC, fruit set [1]: +108% | Increase (%) compared to UTC, remaining fruits at harvest [1]: +106% | Increase (%) compared to UTC, small growing fruits [1]: +104% | Remaining fruits at harvest (%) (Mar. 03, 2009) [1]: 46.0% | Small growing fruits (%) (Nov. 10, 2008) [1]: 46.3% | Increase (%) compared to UTC, fruit set [2]: +165% | Increase (%) compared to UTC, remaining fruits at harvest [2]: +200% | Increase (%) compared to UTC, small growing fruits [2]: +201%
